Data as given in patent US20240382540A1, “MODULATION OF FUSOBACTERIUM VARIUM TO PREVENT BOVINE LIVER ABSCESSES AND IMPROVE CATTLE PERFORMANCE” (priority 2023, published 2024).

Legend:
[1] = test system: Fusobacterium necrophorum; conditions: grain-fed cattle; antibiotic as component of cattle feed; cited from earlier work
F. varium [2] = assay: Rumen fluid enrichment cultures with lactate; assay type: cell-based, Fusobacterium varium; conditions: lactate present in rumen fluid enrichment cultures
Source text: Microbial lactate utilization is linked to several pathogenic mechanisms. […] Currently it is unknown if some or all cattle-associated F. varium strains are able to derive energy from lactate. […] Thus, it is possible that the acquisition of this or a similar mobile genetic element has provided some bovine F. varium strains with the capability of utilizing lactate as a source of energy and a means for avoiding host immunity.
This identification was based on 16S rRNA sequencing using close to the full-length gene (27F/1492R primers), a reliable method for determining bacterial species (FIG. 1).

F. necrophorum = assay: Antimicrobial susceptibility testing: growth of F. necrophorum strains exposed to tylosin and monensin; assay type: cell-based, Fusobacterium necrophorum; conditions: for decline/reduction in growth: F. necrophorum strain 8L1; for growth inhibition: all three F. necrophorum strains tested
Source text: (§1) In an effort to understand the differential response of Fusobacterium species to antimicrobial agents commonly used in livestock, we examined the effect of tylosin and monensin on the growth of reference strains and newly isolated strains of F. varium and F. necrophorum.
(§2) To set up the experiment, we exposed three strains each of F. varium and F. necrophorum to tylosin and monensin at concentrations relevant to ruminal environments.
Strains A and 8L1 were most affected, with both displaying a 98% reduction in growth. […] In this context, growth reductions of 44-66% were observed (P<0.05).

F. varium [3] = assay: Antimicrobial susceptibility testing: growth of F. varium strains exposed to tylosin and monensin; assay type: cell-based, Fusobacterium varium; conditions: for growth inhibition: all tested F. varium strains
Source text: as §1, §2

[4] = concentrations relevant to ruminal environments

| Compound | ruminal concentrations of Fusobacterium necrophorum [1] | decline/reduction in growth (F. necrophorum) | growth inhibition (F. necrophorum) | growth inhibition (F. varium [3]; [4]) | also measured |
| --- | --- | --- | --- | --- | --- |
| virginiamycin | significantly reduced |  |  |  |  |
| CC(O)C(=O)O (stereo not drawn) [lactate] |  |  |  |  | enrichment of native F. varium strains (F. varium [2]): up to 35,000 fold |
| CC[C@@]1([C@@H]2O[C@@H]([C@H]3O[C@@](O)(CO)[C@H](C)C[C@@H]3C)C[C@@H]2C)CC[C@H]([C@]2(C)CC[C@]3(C[C@H](O)[C@@H](C)[C@@H]([C@@H](C)[C@@H](OC)[C@H](C)C(=O)O)O3)O2)O1 [monensin] |  | 98% | more than 87% | did not show substantial growth inhibition | reduction in growth (F. necrophorum; F. necrophorum strain A): 98%; growth reduction (F. necrophorum; F. necrophorum, medium containing only casein pancreatic digest and yeast extract as carbon sources): 44-66%; decrease in growth (F. varium [3]; F. varium bovine isolates, concentrations relevant to ruminal environments): 15%; growth response (F. varium [3]; reference strain F. varium NCTC 10560): no significant response |
| CC[C@H]1OC(=O)C[C@@H](O)[C@H](C)[C@@H](O[C@@H]2O[C@H](C)[C@@H](O[C@H]3C[C@@](C)(O)[C@@H](O)[C@H](C)O3)[C@H](N(C)C)[C@H]2O)[C@@H](CC=O)C[C@@H](C)C(=O)/C=C/C(C)=C/[C@@H]1CO[C@@H]1O[C@H](C)[C@@H](O)[C@@H](OC)[C@H]1OC [tylosin] | significantly reduced | 92% | over 67% | none of the tested strains exhibited substantial growth inhibition | decline in growth (F. necrophorum; F. necrophorum strain FNA): 94%; decline in growth (F. varium [3]; strain F. varium DNLA-8, concentrations relevant to ruminal environments): 13% |
